These results are taken from US20060013770A1, “Method for screening for compounds as potential sedatives or anxiolytics” (priority 2002, published 2006).

Assay [1] deals with HPA axis. The following applies: at the level of the hypothalamic CRF neurons; cited from earlier work.
For assay [2], the system named is HPA axis. The assay can be described thus: Effect on plasma corticosterone (HPA axis activity) in mice, radioimmunoassay. The format is in vivo, NMRI mice.
For assay [3], the system named is HPA axis. The assay can be described thus: Time course of the effect on the HPA axis (plasma ACTH and corticosterone), FIG. 2. The class given is in vivo. Particulars: 10 mg/kg. On the procedure:
One example of measuring the activity of the HPA axis is as follows: The animal Is treated with the NCE and sacrificed within an hour. As the release of ACTH occurs within an hour after the stimulation of the CRF neurons, animals are sacrificed at t=0, 5, 15, 30 and 60 minutes after administration. Trunk blood is taken, serum separated and levels of ACTH is measured in the serum by specific radioimmunoassay. Similarly, the level of glucocortcosteroids are determined at t=0, 30, 60, and 120 minutes (the response occurs somewhat later than ACTH) using a radioimmunoassay.

Setting [4] is: i.p., 60 minutes after administration.

As for `CN1C(=O)CN=C(c2ccccc2)c2cc(Cl)ccc21` [Diazepam], the “effect on the HPA axis” value in assay [1] is listed as “slightly stimulate the HPA axis”.

Consider `Cn1ncnc1COc1nn2c(-c3cc(F)ccc3F)nnc2cc1C(C)(C)C` [L-838,417], for which the “effect on plasma corticosterone” value in assay [2] (12.5 mg/kg, 2 h after administration) is on record as “no effects on plasma corticosterone was observed”. Further, the effect on corticosterone result in assay [2] (i.p., doses up to 12.5 mg/kg, 60 minutes after administration) is reported as “no effect”.

For the molecule `Cc1ccc(-c2nc3ccc(C)cn3c2CC(=O)N(C)C)cc1` [Zolpidem, zolpidem], in assay [2] (i.p., 25 mg/kg, 60 minutes after administration), the “effect on plasma corticosterone at 25 mg/kg compared with 12.5 mg/kg” value was “not further increased”. In addition, in assay [2] (setting [4]), the “dose at which the effect on plasma corticosterone reached a maximum” value was 12.5 mg/kg and the “doses from which plasma corticosterone is significantly increased” value is at least 0.5 mg/kg. Further, the “effect on plasma corticosterone” value in assay [2] (i.p., 60 minutes after administration, increasing doses) is “significantly and dose-dependently increased plasma corticosterone”. Also, the “time course of plasma ACTH and corticosterone” value in assay [3] was “The rise in plasma ACTH precedes the rise in corticosterone”.
